No end group written: not given here.
Key:
mesenteric arteries = test: Vessel reactivity ex vivo; design: species or system mouse; conditions: isolated mesenteric arteries; WT, Scpep1^−/−, CathA^S190A, DD; drugs added extraluminally
Procedure: Vessel reactivity ex vivo was analyzed as described, [40]. Briefly, male mice were sacrificed at five months and their mesenteric arteries were isolated and mounted onto glass capillaries in an artereograph chamber filled with cold oxygenated Krebs solution (118.6 mM NaCl, 4.7 mM KCl, 1.2 mM KH2PO4, 1.2 mM MgSO4, 25.1 mM NaHCO3, 26 µM EDTA, 0.18% glucose, 2.5 mM CaCl2). The arteries were constantly perfused intraluminally with Krebs solution at 30 mmHg. After 45 minutes of equilibration vascular reactivity was measured in response to Norepinephrine (Sigma A-0937, 10^−9–10^−5 M), Acetylcholine (Sigma A-6625, 10^−9–10^−4 M), Sodium Nitroprusside (Calbiochem 56538, 10^−9–10^−4 M), Endothelin-1 (American Peptide Company 88-1-10, 10^−11–10^−8 M) and AI, (American Peptide Company 12-1-10, 10^−8–10^−4 M). Drugs were added extraluminally with a 30 min washout period in between each drug, during which the arteries were able to re-equilibrate to a baseline. To test vasodilatation arteries were pre-contracted with NE to 70% of their equilibration diameter. At least 3 concentration response curves were conducted for each vessel and at least 6 animals were studied for each genotype.

rats = conditions: induced by monocrotaline in rats; ref [33]; cited from earlier work
Excerpt: The anti-hypertensive effect of retinoic acid tre ...

[1] = test system: MLC-2 phosphorylation in AVSMC (ETR-A, ETR-B); test: Myosin light chain 2 phosphorylation by Western blot; assay type: cell-based, mouse; conditions: WT AVSMC, 30 min pre-treatment with 2 µM antagonist, then 5 min 100 nM ET-1, 3 independent experiments
Excerpt: To verify at the molecular level if AVSMC from CathA^S190A/Scpep1^−/− mice have increased reactivity to ET-1, we studied intracellular signalling events in these cells in response to ET-1. ET-1 interacts with G-protein-associated endothelin type A (ETR-A) and type B (ETR-B) receptors on the surface of AVSMC. Activation of the receptors induces phospholipase C and increases the intracellular Ca^2+ level leading to activation of myosin light chain kinase that phosphorylates myosin light chain (MLC) [21]–[24]. This causes contraction of myosin filaments and shrinkage of the cells. We therefore, compared the level of MLC phosphorylation in AVSMC before or after treatment with ET-1 for the 4 strains of mice. AVSMC cultured overnight in serum-free medium were treated with or without 100 nM ET-1, harvested and analyzed by Western blot using antibodies against MLC-2 phosphorylated at Thr^18 and Ser^19 residues or against total MLC protein.
Figure 5 Cultured AVSMC from mice with combined CathA/Scpep1 deficiency show increased reactivity to ET-1. […] Total protein extracts were analyzed by Western blotting using antibodies specific for phosphorylated (pThr^18/Ser^19-MLC) and total MLC-2 protein. […] Total protein extracts were analyzed by Western blotting using antibodies specific for phosphorylated and total MLC-2 protein. […]

[2] = product of ET-1 cleavage by CathA in vitro; ref [13], [14]; cited from earlier work
Excerpt: The bioavailability and potency of AII and ET-1 can be regulated through many factors such as alteration of receptor density and affinity, up- and down-regulation of peptide synthesis or release, enzymatic activation (ACE and ACE2 for AII, ECE and MMP-2 for ET-1 [8]), or degradation (neutral endopeptidase NEP for ET-1 [9]–[11]). Previously we have shown that circulating ET-1 is inactivated by lysosomal carboxypeptidase, cathepsin A (CathA) widely distributed in mammalian tissues (reviewed in [12]). The majority of CathA in the cell is found in the lysosome but significant pool of the e ...

Molecule | differences in vessel reactivity between the four groups of mice (mesenteric arteries) | other results
CC(=O)OCC[N+](C)(C)C [ACh, acetylcholine] | no differences | 
NC[C@H](O)c1ccc(O)c(O)c1 [NE, norepinephrine] | no differences | 
CC1=C(/C=C/C(C)=C/C=C/C(C)=C/C(=O)O)C(C)(C)CCC1 [all-trans retinoic acid] |  | effect on pulmonary hypertension (rats): inhibit pulmonary hypertension
BQ788 |  | effect on ET-1-induced MLC-2 phosphorylation [1]: blocked
angiotensin I (DRVYIHPFHL; Angiotensin-1; UniProt P01019 25-34, looked up) [AI, precursor of vasoconstrictive peptide AII; American Peptide Company 12-1-10] | no differences | 
des-Trp21-endothelin-1 (CSCSSLMDKECVYFCHLDII; ends and bridges not checked; cysteine pairing not given here; UniProt P05305 53-72, looked up, fragment) |  | biological activity [2]: biologically inactive
